# Measured values taken from patent US12012415B2, “Compositions and methods for the diagnosis, treatment and prevention of neoplastic and neurological disorders” (AscentGene, Inc., priority 2018, dated 2024).
# Key:
# [1] = tested on: Aβ1-42-induced cognitive impairments; test: Novel-object recognition (NOR) test in Aβ1-42 AD rat model; assay type: in vivo, rats
# Method: Aβ1-42 (Sigma-Aldrich, St. Louis, MO, USA;) was dissolved in double-distilled water at the concentration of 5 μg/μl, and incubated at 37° C. for one week before surgery. The rats were randomly divided into four groups as Sham (n=8), Sham+AG-1601 (n=8), Aβ1-42 (n=8) and Aβ1-42+AG-1601 (n=8). The Alzheimer's disease rat models were established by intracerebroventricular (i.c.v.) injection of Aβ1-42 aggregates. The animals were anesthetized with intraperitoneal injection of pentobarbital sodium (50 mg/kg) and placed in a stereotaxic apparatus (Narishige, Japan). The head skin of the rat was opened and two small holes were drilled on both sides of skull following the coordinates: 0.8 mm posterior to bregma, +1.4 mm lateral to sagittal suture, 4.0 mm beneath the surface of brain. Aβ1-42 (2.0 μl per side) was injected bilaterally into the lateral ventricles through micro-syringe. The needle was taken out after 5 minutes of the injection to ensure the aggregates were infused completely. […] The short- and long-term memory functions of the animals were evaluated by using the NOR test, which were carried out after the open field test. […] A recognition index was calculated by the percentage of TB/(TA+TB) (TA: time spent exploring the familiar object A; TB: time spent exploring the novel object B). […]
# Glioma cells = test: Cell viability assay in glioma cells versus TMZ and Carmustine; assay type: cell-based, human; details: 48 hours treatment
# Method: Human glioma cell lines of U251, SF539, SF295 were obtained from NCI/DTP and U87 was obtained from ATCC. U251, SF539, and SF295 cells were grown in RPMI (Gibco) medium; U87 cells were grown in EMEM medium (ATCC), all the cells culture media containing 10% FBS and 100 unit/ml of Penicillin-Streptomycin, and cells were incubated in a 37 °C/5% CO2 humidified hood. One day before chemical compounds treatment, four kinds of cells U251, SF539, SF295, and U87 were seeded in 96-well plates at 10,000 cells/well (100 μl) with triplicate. The culture medium was removed and cells were treated with a series different concentration of AG1601/in correspond fresh media. Following an additional incubation of 48 hours at 37° C./5% CO2, cells proliferation assay was performed with Cell Counting Kit-8 (Dojindo Laboratories, #CK04), added 10 μl of reagent to the cells in each well after replacing with 100 μl of fresh media, mix well, following an additional 2 to 3 hours incubation at 37° C./5% CO2, read wavelengths of OD450 nm in a 96-well plate reader (Victor 2, 1420 Multilabel counter), data analysis were performed with Excel and it is platted as relative mean OD450 nm+/−standard error of the mean.
# Cells were treated with indicated content of AG-1601 for 48 hours, then followed by performance of cell viability assays. […]
# SF295 xenograft tumor = test: SF295 GBM xenograft mice model; assay type: in vivo; details: 150 μg/mice IP every other day, 28 days
# Method: Female SHO mice (Crl:SHO-Prkdescid Hr/6-8 weeks) were purchased from Charles River. Human glioblastoma cell line SF295 cells were injected subcutaneously on the right flank of 8 week female SHO mice (3×10^6/per mice), tumor appears around one week (day 7) post inoculation. When the tumor size reaches the volume of 100 mm^3, total 12 mice were randomly divided to two groups (Treatment & Vehicle). 100 μl of 1.5 μg/μl of AG-1601 (total 150 μg/mice) was injected via IP to each mouse in the Treatment Group every other day for total 28 days; the same volume of H2O was injected to the mouse in the Vehicle Group. Tumor size measurement was evaluated using the digital calipers and tumor size was calculated using the following formula [mm^3=((L+W)/4)×((L+W)/4)×((L+W)/4)×4/3×3.14159], data are platted as relative mean tumor volume+/−standard error of the mean.
structure (smiles),measurement,setting,value
"C=CC1=C(C)c2cc3[nH]c(cc4nc(cc5[nH]c(cc1n2)c(C)c5C=C)C(C)=C4CCC(=O)O)c(CCC(=O)NCCCc1ccccc1)c3C [AG-1601, 3-(2,8,13,18-tetramethyl-3-(3-oxo-3-((3-phenylpropyl)amino)propyl)-12,17-divinylporphyrin-7-yl)propanoic acid]","recognition index, short-term memory test","[1]; 1 h after training, vs Aβ1-42 group",significant increase in recognition index
same,cognitive impairments in NOR test,[1]; Aβ42 induced AD rat model,significantly reversed cognitive impairments
same,efficacy on glioma cells compared with TMZ and Carmustine,Glioma cells,better efficacy on Glioma cells in vitro than TMZ and Carmustine
same,efficacy on SF295 xenograft tumor,SF295 xenograft tumor,shows efficacy
